“And” between values parts separate entries of the source, which are not always exact repeats. Identical values can stand only once.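 Tested at 5 concentrations; 48 h exposure; 96-well plates; endpoints linearly interpolated, else capped at highest concentration. Abbreviation: GI50, concentration required for 50% inhibition of growth. At the TGI there is no net growth.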
What was measured:
Test in all cases: DTP human tumour cell line panel, 48 h
HCT-15 colon = test system: HCT-15 colon
IGROV1 ovarian = test system: IGROV1 ovarian
KM12 colon = test system: KM12 colon
CCRF-CEM leukemia = test system: CCRF-CEM leukemia
CAKI-1 renal = test system: CAKI-1 renal
BT-549 breast = test system: BT-549 breast
SNB-75 CNS = test system: SNB-75 CNS
ACHN renal = test system: ACHN renal
SK-MEL-2 melanoma = test system: SK-MEL-2 melanoma
OVCAR-5 ovarian = test system: OVCAR-5 ovarian

| Structure (SMILES) | TGI (HCT-15 colon) [µM] | TGI (IGROV1 ovarian) [µM] | TGI (KM12 colon) [µM] | TGI (CCRF-CEM leukemia) [µM] | TGI (CAKI-1 renal) | TGI (BT-549 breast) [µM] | TGI (SNB-75 CNS) | TGI (ACHN renal) [µM] | TGI (SK-MEL-2 melanoma) | TGI (OVCAR-5 ovarian) | GI50 (HCT-15 colon) [µM] | GI50 (KM12 colon) [µM] | GI50 (SNB-75 CNS) [µM] | GI50 (ACHN renal) [µM] | GI50 (OVCAR-5 ovarian) [µM] |
| --- | --- | --- | --- | --- | --- | --- | --- | --- | --- | --- | --- | --- | --- | --- | --- |
| O=C(/C=C/c1ccc(O)c(-c2cc(C(=O)/C=C/c3ccc(O)cc3)c(O)cc2O)c1)c1ccc(O)cc1O | > 50 | > 50 | 31.7 | 37.3 | > 50 µM | > 50 | 36 µM | > 50 | > 50 µM | > 50 µM |  |  |  |  |  |
| CCCNC(=O)CCC(C)C1CCC2C3C(C[C@H](OC(C)=O)[C@]12C)[C@@]1(C)CCC2(C[C@H]1C[C@H]3OC(C)=O)OOC1(CC[C@]3(C)C4C[C@H](OC(C)=O)[C@]5(C)C(C(C)CCC(=O)NCCC)CCC5C4[C@H](OC(C)=O)C[C@@H]3C1)OO2 (stereo partly specified) | > 100 | > 100 | > 100 | > 100 | > 100 µM | > 100 | > 69.5 µM | > 82.2 | > 100 µM | > 100 µM |  |  |  |  |  |
| [N-]=[N+]=CC(=O)c1ccccc1C#CCCc1ccccc1 | > 100 | > 100 | > 100 | 62.1 |  |  | 61.4 µM | 68.8 | 79.7 µM | > 100 µM |  |  |  |  |  |
| CC1=CC(=O)c2ccccc2C1=O | 14.1 | 29.2 | 23 | 5.76 | 29.7 µM | 25.6 | 22.1 µM | 13.1 | 22.7 µM | 26.7 µM |  |  |  |  |  |
| CCC1CN(C(=O)c2ccccc2)C(Cc2c[nH]c3ccccc23)C(=O)C1CC(=O)OC (stereo unspecified) | > 100 | > 100 | > 100 | > 100 | > 100 µM | > 100 | > 100 µM | > 100 | > 100 µM | > 100 µM |  |  |  |  |  |
| CCOC(=O)C1=NN(c2ccc(C)cc2)C2=CC(C)=NN(C)C(=S)N21 | > 100 | > 100 | > 100 | > 100 | 55.1 µM | > 100 | > 100 µM | > 100 | > 100 µM | > 100 µM |  |  |  |  |  |
| Nc1ccccc1S(=O)(=O)c1ccccc1 | > 100 | > 100 | > 100 | > 100 |  |  | > 100 µM | > 100 | > 100 µM | > 100 µM |  |  |  |  |  |
| Cc1c(N2C(=O)CS(=O)(=O)C2c2cccc(Oc3ccccc3)c2)c(=O)n(-c2ccccc2)n1C (stereo unspecified) | > 100 | > 100 | > 100 | > 100 | > 100 µM | > 100 |  | > 100 | > 100 µM | > 100 µM |  |  |  |  |  |
| O=c1[nH]nc(NNc2ccccc2)c2nnn(C3CCCCC3)c12 | > 100 |  | > 100 | > 100 | > 100 µM | > 100 |  | > 100 | > 100 µM | > 100 µM |  |  |  |  |  |
| COc1nc(C#CC2(O)CCCCC2)nc(OC)n1 | 15.6 | 23.1 | 30.2 | 48.6 | 15.9 µM | 28 | 40.3 µM | 21.9 | 27 µM | 25.4 µM |  |  |  |  |  |
| COc1ccc(C(=O)c2sc(Nc3ccc(Cl)cc3)nc2N)cc1 | > 100 | > 53.9 | > 100 | 58.1 | 42.2 µM | > 100 | 18.4 µM | > 87.7 | > 49.1 µM | > 100 µM |  |  |  |  |  |
| CCn1c(-c2ccc(N=NNc3ccc(-c4n[nH]c(=S)n4CC)cc3)cc2)n[nH]c1=S | > 100 |  | 5.93 | 61.6 |  | 5.73 | 6.92 µM | 6.1 | 4.45 µM |  |  |  |  |  |  |
| O=C(C[n+]1ccc2ccccc2c1)c1ccc2ccc3ccccc3c2c1 | 18.9 | 17.2 | 11.5 | 4.78 | 20.1 µM | 24 | 18.5 µM | 14.8 | 15.9 µM | 19.8 µM |  |  |  |  |  |
| CC(C)(C)c1cc(C2=NNC(c3ccccc3)C2)cc(C(C)(C)C)c1O (stereo unspecified) | 31.2 | 30.2 | 31.7 |  | 28.2 µM | 32 | 25.3 µM | 29.8 | 29.3 µM | 40.9 µM |  |  |  |  |  |
| COc1cccc2c1Cc1cc(-c3ccccc3)[n+](C)n1-2 | > 100 | > 100 | 34.3 | 9.69 | > 100 µM | 99.5 | 58.6 µM | 79.9 | 50 µM | > 100 µM |  |  |  |  |  |
| CCCCCCCCC/C=C/C=C/C(=O)NCC(=O)NC1C(O)C(O)C(Nc2ncnc3nc[nH]c23)OC1C(O)CO (stereo unspecified) |  | 0.00337 | 0.608 |  | 0.0105 µM and 0.0747 µM |  | 0.018 µM and 0.0703 µM |  | 0.057 µM and 0.136 µM | 0.0182 µM and 0.0671 µM | 2.05 | 0.0013 | 0.00184 | 0.0144 | 0.00137 |
| O=C(OCN1C(=O)C2C3C=CC(C2C1=O)C1C2C(=O)N(COC(=O)C4CCCN4)C(=O)C2C31)C1CCCN1 (stereo unspecified) | > 58.7 | > 100 | > 100 | 53.5 | > 100 µM |  | > 100 µM | > 83.4 | > 31.6 µM | > 100 µM |  |  |  |  |  |
| O=C(/C=C/c1ccccc1)NNC(=O)c1c(Cl)c(Cl)c(Cl)c(Cl)c1-c1nc2ccccc2[nH]1 | 90.7 | 45.6 |  | 75.8 | > 100 µM | 76.1 | 59.2 µM | > 100 | 80.8 µM | > 100 µM |  |  |  |  |  |
| Nc1nc(SCCc2ccccc2)nc2nc3c(c(-c4ccccc4)c12)CCCC3 | > 100 | > 100 | > 100 | > 100 | > 100 µM | > 100 | 83.7 µM | > 100 |  |  |  |  |  |  |  |
| CC12CC3OC(=O)C1COC14OC5(C2C1=O)C(O)(CCC1C4CC(O)C2(O)CC=CC(=O)C12C)C(=O)OC35C (stereo unspecified) | > 100 | > 100 | > 100 | > 100 | > 100 µM | > 100 | > 100 µM | > 100 | > 100 µM | > 100 µM |  |  |  |  |  |
